Assay results as given in ChEMBL document CHEMBL5120753, “Isolation and biological activity of azocine and azocane alkaloids” (Bioorg Med Chem, 2022).
Converted amounts (≈) assume the structure as drawn.

Tests used:
[1] = test system: Plasmodium falciparum; experiment: Antiplasmodial activity against Plasmodium falciparum 3D7 infected in human erythrocytes assessed as cell growth inhibition incubated for 72 hrs by parasite lactate dehydrogenase assay; format: functional, organism-based; conditions: 3D7, 72 h
[2] = test system: Mycobacterium tuberculosis; experiment: Antimycobacterial activity against Mycobacterium tuberculosis H37Rv assessed as inhibition of bacterial growth; format: functional
[3] = test system: NIH3T3; experiment: Cytotoxicity against mouse NIH3T3 cells assessed as cell growth inhibition incubated for 48 hrs by alamar blue dye-based fluorometric analysis; format: functional; conditions: NIH3T3, 48 h
[4] = test system: Plasmodium falciparum; experiment: Antimalarial activity against Plasmodium falciparum K1 infected in human RBC assessed as parasite growth inhibition measured after 48 hrs by optical microscopy; format: functional, organism-based; conditions: K1, Erythrocyte
[5] = Toxicity in mouse assessed as lethal dose; conditions: in vivo
[6] = test system: L1210; experiment: Cytotoxicity against mouse L1210 cells assessed as cell growth inhibition; format: functional, cell-based
[7] = test system: KB; experiment: Cytotoxicity against human KB cells assessed as cell growth inhibition; format: functional, cell-based
[8] = Inhibition of urease (unknown origin); parameters: species or system Homo sapiens
[9] = molecular target: Prostaglandin G/H synthase 2 (Homo sapiens) (UniProt P35354); experiment: Inhibition of COX-2 (unknown origin) using arachidonic acid as substrate at 100 uM preincubated for 5 mins followed by substrate addition measured after 15 mins by absorbance based analysis relative to control; conditions: time 20.0 min
Prostaglandin G/H synthase 2 (Homo sapiens), sequence (P35354 whole entry): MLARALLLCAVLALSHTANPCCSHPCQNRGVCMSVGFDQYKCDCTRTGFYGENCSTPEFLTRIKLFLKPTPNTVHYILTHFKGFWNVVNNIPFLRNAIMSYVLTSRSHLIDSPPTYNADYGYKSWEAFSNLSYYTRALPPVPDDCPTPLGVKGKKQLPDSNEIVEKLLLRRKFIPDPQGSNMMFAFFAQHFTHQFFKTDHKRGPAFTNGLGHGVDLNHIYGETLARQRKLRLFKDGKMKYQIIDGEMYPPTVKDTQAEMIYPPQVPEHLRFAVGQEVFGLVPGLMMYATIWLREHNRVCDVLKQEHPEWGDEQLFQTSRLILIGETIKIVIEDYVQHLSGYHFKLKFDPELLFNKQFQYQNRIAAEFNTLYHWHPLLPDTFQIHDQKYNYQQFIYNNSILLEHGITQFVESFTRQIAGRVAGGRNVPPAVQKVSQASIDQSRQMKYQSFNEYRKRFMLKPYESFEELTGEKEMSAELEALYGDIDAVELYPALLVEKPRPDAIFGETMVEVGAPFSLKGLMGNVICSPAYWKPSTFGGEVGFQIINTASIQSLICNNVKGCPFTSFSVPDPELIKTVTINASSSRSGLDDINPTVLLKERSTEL

[10] = molecular target: Polyunsaturated fatty acid 5-lipoxygenase (Homo sapiens) (UniProt P09917); experiment: Inhibition of 5-LOX (unknown origin) using arachidonic acid as substrate at 100 uM preincubated for 5 mins followed by substrate addition measured after 15 mins by absorbance based analysis relative to control; conditions: time 20.0 min
Polyunsaturated fatty acid 5-lipoxygenase (Homo sapiens), sequence (P09917 whole entry): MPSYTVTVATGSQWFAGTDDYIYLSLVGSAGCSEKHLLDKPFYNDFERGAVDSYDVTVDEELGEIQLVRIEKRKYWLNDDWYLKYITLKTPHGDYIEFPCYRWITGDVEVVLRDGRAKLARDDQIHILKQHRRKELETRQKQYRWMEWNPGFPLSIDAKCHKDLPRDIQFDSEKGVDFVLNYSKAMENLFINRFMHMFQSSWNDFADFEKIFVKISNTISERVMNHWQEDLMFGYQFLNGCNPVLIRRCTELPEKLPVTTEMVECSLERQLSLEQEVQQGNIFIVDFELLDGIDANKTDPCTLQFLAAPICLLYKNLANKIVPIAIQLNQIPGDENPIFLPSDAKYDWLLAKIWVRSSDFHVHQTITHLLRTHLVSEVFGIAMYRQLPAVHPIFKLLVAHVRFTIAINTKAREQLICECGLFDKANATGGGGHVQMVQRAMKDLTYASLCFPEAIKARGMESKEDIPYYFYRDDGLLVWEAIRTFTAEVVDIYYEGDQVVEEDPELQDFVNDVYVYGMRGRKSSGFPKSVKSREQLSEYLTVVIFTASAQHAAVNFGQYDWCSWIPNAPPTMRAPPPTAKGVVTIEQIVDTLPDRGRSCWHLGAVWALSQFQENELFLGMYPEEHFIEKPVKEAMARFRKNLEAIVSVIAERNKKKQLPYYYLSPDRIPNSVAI

[11] = molecular target: Prostaglandin G/H synthase 1 (Homo sapiens) (UniProt P23219); experiment: Inhibition of COX-1 (unknown origin) using arachidonic acid as substrate at 100 uM preincubated for 5 mins followed by substrate addition measured after 15 mins by absorbance based analysis relative to control; conditions: time 20.0 min
Prostaglandin G/H synthase 1 (Homo sapiens), sequence (P23219 whole entry): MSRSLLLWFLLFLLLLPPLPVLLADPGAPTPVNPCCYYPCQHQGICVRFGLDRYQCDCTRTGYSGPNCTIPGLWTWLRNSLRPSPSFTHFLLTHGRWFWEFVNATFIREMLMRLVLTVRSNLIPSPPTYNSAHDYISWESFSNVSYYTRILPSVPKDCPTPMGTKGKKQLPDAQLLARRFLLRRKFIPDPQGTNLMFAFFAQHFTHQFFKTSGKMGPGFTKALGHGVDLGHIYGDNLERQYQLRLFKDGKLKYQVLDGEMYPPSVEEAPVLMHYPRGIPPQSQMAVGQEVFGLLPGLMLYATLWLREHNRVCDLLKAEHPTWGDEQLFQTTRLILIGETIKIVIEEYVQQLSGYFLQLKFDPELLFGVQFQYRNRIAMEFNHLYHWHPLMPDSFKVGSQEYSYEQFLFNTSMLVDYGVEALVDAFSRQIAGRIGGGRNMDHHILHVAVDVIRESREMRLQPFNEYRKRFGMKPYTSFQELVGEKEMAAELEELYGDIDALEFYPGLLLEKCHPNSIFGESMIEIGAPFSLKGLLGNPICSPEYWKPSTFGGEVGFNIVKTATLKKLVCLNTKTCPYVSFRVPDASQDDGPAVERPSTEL

[12] = molecular target: T1, Xanthine dehydrogenase/oxidase (Homo sapiens, UniProt P47989); experiment: Inhibition of xanthine oxidase (unknown origin)
T1 sequence (P47989 whole entry): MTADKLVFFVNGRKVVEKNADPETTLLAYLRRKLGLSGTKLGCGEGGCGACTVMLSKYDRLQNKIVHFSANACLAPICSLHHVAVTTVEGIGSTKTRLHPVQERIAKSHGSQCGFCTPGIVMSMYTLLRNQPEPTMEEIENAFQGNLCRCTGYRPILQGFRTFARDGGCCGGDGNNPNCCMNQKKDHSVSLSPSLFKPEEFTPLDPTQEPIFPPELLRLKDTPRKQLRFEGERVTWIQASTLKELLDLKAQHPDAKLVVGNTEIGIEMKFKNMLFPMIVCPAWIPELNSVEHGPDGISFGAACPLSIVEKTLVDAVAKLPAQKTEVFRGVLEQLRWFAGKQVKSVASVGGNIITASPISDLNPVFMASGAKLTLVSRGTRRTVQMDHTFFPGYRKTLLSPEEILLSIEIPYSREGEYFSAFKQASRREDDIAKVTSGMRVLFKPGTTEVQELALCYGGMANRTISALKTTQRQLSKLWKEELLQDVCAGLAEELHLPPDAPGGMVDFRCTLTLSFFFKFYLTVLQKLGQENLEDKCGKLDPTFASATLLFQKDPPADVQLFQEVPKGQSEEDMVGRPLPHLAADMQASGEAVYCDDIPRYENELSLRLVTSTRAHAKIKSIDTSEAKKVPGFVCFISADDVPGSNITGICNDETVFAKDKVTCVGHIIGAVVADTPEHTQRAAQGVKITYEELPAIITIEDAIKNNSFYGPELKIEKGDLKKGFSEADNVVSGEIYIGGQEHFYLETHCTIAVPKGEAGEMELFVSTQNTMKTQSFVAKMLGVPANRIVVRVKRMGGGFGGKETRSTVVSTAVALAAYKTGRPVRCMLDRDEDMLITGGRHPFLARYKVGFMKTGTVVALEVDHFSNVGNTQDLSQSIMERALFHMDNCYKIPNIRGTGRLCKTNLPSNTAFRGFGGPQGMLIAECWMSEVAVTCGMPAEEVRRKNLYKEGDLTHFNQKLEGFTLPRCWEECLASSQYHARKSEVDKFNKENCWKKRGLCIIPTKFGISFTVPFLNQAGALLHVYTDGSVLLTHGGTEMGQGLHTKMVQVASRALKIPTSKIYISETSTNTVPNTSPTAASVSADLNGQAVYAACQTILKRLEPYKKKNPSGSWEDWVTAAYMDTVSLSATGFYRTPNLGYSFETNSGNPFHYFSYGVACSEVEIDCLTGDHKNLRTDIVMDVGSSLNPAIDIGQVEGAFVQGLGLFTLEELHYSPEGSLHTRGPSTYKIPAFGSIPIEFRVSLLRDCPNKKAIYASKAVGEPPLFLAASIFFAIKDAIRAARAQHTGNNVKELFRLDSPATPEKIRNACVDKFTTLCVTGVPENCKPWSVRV

[13] = Antioxidant activity assessed as DPPH radical scavenging activity; format: functional
[14] = Toxicity in Artemia salina assessed as mortality at 10 ug/ml measured after 24 hrs by microscopic analysis; conditions: at 10 µg/mL, read-out: Activity
[15] = test system: MG-63; experiment: Cytotoxicity against human MG-63 cells assessed as cell growth inhibition incubated for 48 hrs by microplate reader based analysis; format: functional; conditions: MG-63, 48 h
[16] = Cytotoxicity against human SOSP-9607 cells assessed as cell growth inhibition incubated for 48 hrs by microplate reader based analysis; format: functional; conditions: SOSP-9607, 48 h
[17] = test system: SAOS-2; experiment: Cytotoxicity against human SAOS-2 cells assessed as cell growth inhibition incubated for 48 hrs by microplate reader based analysis; format: functional; conditions: SAOS-2, 48 h
[18] = test system: U2OS; experiment: Cytotoxicity against human U2OS cells assessed as cell growth inhibition incubated for 48 hrs by microplate reader based analysis; format: functional
[19] = test system: Plasmodium berghei; experiment: Antiplasmodial activity against Plasmodium berghei infected in ip dosed Swiss albino mouse assessed as growth inhibition at asexual erythrocytic stage; format: functional; parameters: scale not given: the % may be the effect or the level left
[20] = test system: Staphylococcus aureus; experiment: Antibacterial activity against Staphylococcus aureus assessed as bacterial growth inhibition; format: functional
[21] = Toxicity in Artemia salina assessed as mortality measured after 24 hrs by microscopic analysis; conditions: read-out: Activity
[22] = test system: Plasmodium falciparum; experiment: Antiplasmodial activity against chloroquine sensitive Plasmodium falciparum D6 assessed as cell growth inhibition; format: functional, organism-based
[23] = test system: Staphylococcus aureus; experiment: Antibacterial activity against Staphylococcus aureus assessed as zone of inhibition measured after 16 hrs by disk diffusion assay; format: functional
[24] = test system: Plasmodium falciparum; experiment: Antiplasmodial activity against chloroquine sensitive Plasmodium falciparum W2 assessed as cell growth inhibition; format: functional, organism-based
[25] = test system: N2a; experiment: Neuroprotective activity against paraquat induced mouse Neuro2a cells assessed as reduction in cell viability at 1 uM pretreated for 1 hr followed by paraquat addition measured after 24 hrs by MTT method relative to control; format: functional; conditions: time 25 hrs
[26] = molecular target: T1, Xanthine dehydrogenase/oxidase; experiment: Inhibition of xanthine oxidase (unknown origin) at 10 uM using xanthine as substrate
[27] = Displacement of [3H]-naloxone from opiate receptor in rat cortical brain membrane assessed as inhibition constant incubated for 30 mins by liquid scintillation counter analysis; format: cell membranes
[28] = test system: P388; experiment: Cytotoxicity against mouse P388 cells assessed as effective dose; format: functional; conditions: read-out: ED50 (the source's name)
[29] = molecular target: Cholinesterase (Homo sapiens, UniProt P06276); experiment: Inhibition of human BChE
Cholinesterase, sequence (P06276 whole entry): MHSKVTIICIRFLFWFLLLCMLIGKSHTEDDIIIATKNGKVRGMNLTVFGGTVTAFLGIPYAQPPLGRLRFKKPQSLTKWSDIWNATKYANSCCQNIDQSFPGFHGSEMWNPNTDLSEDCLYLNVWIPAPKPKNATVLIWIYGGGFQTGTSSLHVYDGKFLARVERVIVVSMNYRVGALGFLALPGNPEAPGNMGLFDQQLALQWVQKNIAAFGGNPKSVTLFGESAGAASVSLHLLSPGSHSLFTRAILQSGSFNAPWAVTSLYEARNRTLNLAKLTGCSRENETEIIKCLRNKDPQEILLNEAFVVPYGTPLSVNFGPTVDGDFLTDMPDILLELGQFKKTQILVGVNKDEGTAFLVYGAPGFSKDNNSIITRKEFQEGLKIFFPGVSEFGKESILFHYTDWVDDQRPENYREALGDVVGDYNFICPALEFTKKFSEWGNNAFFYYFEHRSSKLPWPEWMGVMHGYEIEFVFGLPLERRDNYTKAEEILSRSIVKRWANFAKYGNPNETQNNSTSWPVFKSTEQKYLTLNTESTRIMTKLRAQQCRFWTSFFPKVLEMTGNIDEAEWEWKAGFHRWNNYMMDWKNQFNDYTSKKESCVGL

SMILES: CCC(=O)Oc1ccc([C@H]2Oc3ccc4[nH]cc5c4c3[C@@H]2C(=O)NCC5)cc1OC
- IC50 [1]: 36.6 µM

SMILES: CO[C@H]1/C=C/O[C@@]2(C)Oc3c(C)c(O)c4c(O)c(c(/C=N/N5CCN(C)CC5)c(O)c4c3C2=O)NC(=O)/C(C)=C\C=C\[C@H](C)[C@H](O)[C@@H](C)[C@@H](O)[C@@H](C)[C@H](OC(C)=O)[C@@H]1C [RIFAMPIN]
- MIC50 [2]: 0.5 µg/mL (≈ 0.608 µM)

SMILES: CC[C@@H]1C2CCN(C)C1c1c([nH]c3ccc(OC)cc13)C2=O (stereo partly drawn)
- IC50 [3]: > 50 µg/mL
- IC50 [4]: 16.7 µM

SMILES: C[N@@+]12CC[C@]34c5ccccc5N5/C=C6\[C@@H]7N(/C=C(\[C@H]53)[C@H](C[C@@H]41)/C(=C\CO)C2)c1ccccc1[C@@]71CC[N@@+]2(C)C/C(=C/CO)[C@H]6C[C@@H]12
- LD [5]: 0.8 mg/kg

SMILES: O=CC1=C[C@@]2(O)CC/C=C\CCCCN3CC[C@@H]1[C@]1(C[C@@H]4/C=C\CCCCN4[C@H]12)C3 [IRCINAL]
- IC50 [6]: 1.4 µg/mL (≈ 3.41 µM)
- IC50 [7]: 4.8 µg/mL (≈ 11.7 µM)

SMILES: CC1CC2C[C@]34C(=O)CCCN3CCC[C@@]2(O)C(=O)C14 (stereo partly drawn)
- IC50 [6]: > 10 µg/mL
- IC50 [7]: > 10 µg/mL

SMILES: C/C=C1\CN2CC[C@@H]1[C@](CO)(C(=O)OC)c1[nH]c3ccccc3c1C2
- IC50 [8]: 32.6 µM
- inhibition [9]: 63.7%
- inhibition [10]: 60.8%
- inhibition [11]: 49.4%
- IC50 [12]: > 100 µM
- IC50 [13]: 24.5 µM

SMILES: COc1cc([C@H]2Oc3ccc4[nH]cc5c4c3[C@H]2C(=O)NCC5=O)ccc1O
- mortality at 24 h, 10 ug/ml [14]: 90%

SMILES: COC(=O)C1=C2Nc3c(OC)cccc3[C@]23CC[N+]2(C)C[C@H](C(C)=O)[C@H]1C[C@H]32 (stereo partly drawn)
- IC50 [15]: 9.2 µM
- IC50 [16]: 9.2 µM
- IC50 [17]: 9.2 µM
- IC50 [18]: 9.2 µM

SMILES: O[C@]12C=C(c3nccc4c3[nH]c3ccccc34)[C@@H]3CCN(CCCC/C=C\CC1)C[C@@]31C[C@@H]3/C=C\CCCCN3[C@H]12 [MANZAMINE A]
- Activity [19]: 90%
- MIC [20]: 6.3 µg/mL (≈ 11.5 µM)
- MIC50 [2]: 1.5 µg/mL (≈ 2.73 µM)

SMILES: COc1cc([C@H]2Oc3ccc4[nH]cc5c4c3[C@@H]2C(=O)NCC5)ccc1O
- mortality at 24 h [21]: 90%
- IC50 [22]: > 10 µg/mL
- diameter of the inhibition zone (DIZ) [23]: 19 mm
- IC50 [24]: > 10 µg/mL

SMILES: CC1(C)/C=C\N2C(=O)[C@]3(O)[C@H](O)CCN3C(=O)[C@@H]2Cc2c1[nH]c1ccccc21
- Activity [25]: 36.5%

SMILES: CC1(C)/C=C\N2C(=O)[C@]3(O)[C@@H](O)CCN3C(=O)[C@@H]2Cc2c1[nH]c1ccccc21
- Activity [25]: 30.3%

SMILES: C=C1c2[nH]c3ccccc3c2CN2CC[C@H]1/C(=C\C)C2 [APPARICINE]
- IC50 [26]: 0.65 µM
- Ki [27]: 2.65 µM
- EC50 [28]: 3.8 µg/mL (≈ 14.4 µM)

SMILES: COC(=O)[C@]12COCC[C@@H]3[C@H](c4c1[nH]c1ccccc41)N(C)CC[C@@H]32 [UNDULIFOLINE]
- IC50 [29]: 28.5 µM
